Measured values taken from article PMC12040169 (PLOS Biology, 2025).

Test: in vitro
Conditions: human, hela cells, % viability

| Structure (SMILES) | viability at 28.5 h, 10 µM |
| --- | --- |
| CC(C)(C)OC(=O)N1CCC(COc2ncc(-c3ccc(C(=O)N4CCC[C@@H]4CO)nc3)cn2)CC1 [CBK170022] | 90.9% |
| CC(=O)NCCNC(=O)c1ccc(-c2cnc(OCC3CCN(C(=O)OC(C)(C)C)CC3)nc2)cn1 [CBK170023] | 104% |
| COc1cc(C(=O)N2CCC3(CC2)CC(=O)c2ccc(-c4ccc(NS(C)(=O)=O)cc4)cc2O3)cc(OC)c1C [CBK170163] | 90.8% |
| CC(=O)N1CCN(c2nnc(-c3ccccc3)o2)CC1 [CBK170332] | 87.9% |
| COc1cc(C(=O)N2CCC3(CC2)CC(=O)c2cc(-c4cccc(C)c4)ccc2O3)cc(OC)c1C [CBK170341] | 87.7% |
| Cc1c(S(=O)(=O)N2CCN(C)CC2)sc2ccc(C(C)C)cc12 [CBK170362] | 90.1% |
| CC(C)OC(=O)C(NC(=O)OC(C)(C)C)c1ccccc1 (stereo not shown) [CBK170399] | 90.4% |
| CCOC(=O)N1CCC(Nc2nc3ccccc3nc2OCc2cc(C)on2)CC1 [CBK171825] | 89.2% |
| CCC(=O)N1CCC(NC(=O)N(CCc2ccccn2)Cc2ccccc2)CC1 [CBK171898] | 90.9% |
| Cn1cccc1C(=O)N1CCC(OCc2cnc(-c3ccc(S(C)(=O)=O)cc3)cn2)CC1 [CBK172007] | 106% |
| CC1(COC(=O)N2CCC(OCc3cnc(-c4ccc(S(C)(=O)=O)cc4)cn3)CC2)COC1 [CBK172009] | 86.7% |
| Fc1ccccc1C1CCN(c2cncc(N3CCNCC3)n2)CC1 [CBK172236G] | 122% |
| CC(C)(C)OC(=O)N(c1cncc(N2CCNCC2)n1)[C@@H]1CCOc2ccccc21 [CBK172251G] | 109% |
| c1ccc2c(c1)CCC(Oc1cncc(N3CCNCC3)n1)C2 (stereo not shown) [CBK172295G] | 97% |
| COc1cccc2c1OCC[C@@H]2Oc1cncc(N2CCNCC2)n1 [CBK172305G] | 106% |
| Clc1ccc2c(c1)OCC[C@@H]2Oc1cncc(N2CCNCC2)n1 [CBK172313G] | 86.2% |
| Cc1ccc2c(c1)C(Oc1cncc(N3CCNCC3)n1)CCO2 (stereo not shown) [CBK172334G] | 99.7% |
| c1ccc(N2CCOCC2)c(COc2cncc(N3CCNCC3)n2)c1 [CBK172351G] | 105% |
| CC(C)(C)OC(=O)N1CCN(c2cncc(OC3CSCc4ccccc43)n2)CC1 (stereo not shown) [CBK172354] | 105% |
| Cc1sc(-c2ccc(C(F)(F)F)cc2)nc1COc1cncc(N2CCNCC2)n1 [CBK172383G] | 85.6% |
| c1ccc2c(c1)CCC[C@H]2Oc1cncc(N2CCNCC2)n1 [CBK172388G] | 90.7% |
| N[C@H](CCc1nc2ccccc2[nH]1)C(=O)O [CBK172614] | 98.2% |

| Structure (SMILES) | viability at 28.5 h, 10 µM |
| --- | --- |
| C[S+]([O-])c1ccc(-c2ccc(CN(C3CC3)C3CCN(c4ncccn4)CC3)cn2)cc1 (stereo not shown) [CBK172877] | 90.2% |
| N#CCc1c(-c2ccc(Br)cc2)nc2ccccn12 [CBK172896] | 100% |
| CN(Cc1cnc(-c2ccncc2)cn1)C1CCN(C(=O)OC(C)(C)C)CC1 [CBK172979] | 93.4% |
| Cc1ccc(S(=O)(=O)Nc2ccc3c(ccn3CCC3CCN(C(=O)OC(C)(C)C)CC3)c2)cc1Cl [CBK172990] | 94.6% |
| CC(C)(C)OC(=O)N1CCC(C(Cc2ccc(-c3ccc(S(C)(=O)=O)cc3)cc2)C(=O)NCCOCCO)CC1 (stereo not shown) [CBK173128] | 83.7% |
| COCCNC(=O)C(Cc1ccc(-c2ccc(S(C)(=O)=O)cc2)cc1)C1CCN(C(=O)OC(C)(C)C)CC1 (stereo not shown) [CBK173129] | 125% |
| CC(C)(C)OC(=O)N1CCC(C2OCc3cc(C(=O)N4CCNC(=O)C4)ccc3O2)CC1 (stereo not shown) [CBK173277] | 105% |
| CCN(CC)C(=O)C1CCCN(C(=O)c2ccc3c(c2)COC(C2CCN(C(=O)OC(C)(C)C)CC2)O3)C1 (stereo not shown) [CBK173279] | 100% |
| CC(C)COC(=O)N1CCN(C2CCc3cc(-c4ccc([S+](C)[O-])cc4)ccc3C2)CC1 (stereo not shown) [CBK173425] | 89.8% |
| CC(C)(C)OC(=O)N1CCC(C2OCc3cc(-c4ccc(C(=O)N5CCOCC5)o4)ccc3O2)CC1 (stereo not shown) [CBK173615] | 85.6% |
| CNC(=O)c1ccc(-c2cnc(NCC3CCN(C(=O)OC(C)(C)C)CC3)cn2)cc1 [CBK173726] | 111% |
| Cc1cc(COc2nc3ccccc3nc2N2CCCC2C(=O)OC(C)(C)C)no1 (stereo not shown) [CBK173753] | 85.8% |
| CCCNCCc1ccc(NC(=O)NCCc2ccccc2)cc1 [CBK173873T] | 93.5% |
| Cc1cc(COc2nc3ccccc3nc2NCCC2=CCCCC2)no1 [CBK173982] | 115% |
| Cc1cc(COc2nc3ccccc3nc2NCCCCO)no1 [CBK173985] | 94.1% |
| Cc1cc(COc2nc3ccccc3nc2NCCC(C)O)no1 (stereo not shown) [CBK173999] | 95.7% |
| Cc1cc(COc2nc3ccccc3nc2NC(C)C(C)C)no1 (stereo not shown) [CBK174007] | 117% |
| CN(C)CCNC(=O)c1ccc(-c2ccccc2S(=O)(=O)Nc2ccc(C(=O)O)c(O)c2)cc1 [CBK174050] | 106% |
| NC1CCN(c2ncccn2)CC1 [CBK174054] | 98.7% |
| Cc1ccc(NC(=O)c2ccncc2)cc1C [CBK174646] | 97.5% |
| CCN1CCC[C@@H]1CNC(=O)c1ccncc1 [CBK174659] | 113% |
| CCN1CCC[C@@H]1CNC(=O)c1cc(Cl)nc(OC)c1 [CBK174692] | 88.3% |

| Structure (SMILES) | viability at 28.5 h, 10 µM |
| --- | --- |
| CNc1nc(NC(C#N)c2ccccc2)ncc1N (stereo not shown) [CBK174783] | 107% |
| COCC(=O)N1CCC(NC(=O)N(CCc2ccccc2)Cc2ccccc2)CC1 [CBK174877] | 102% |
| COc1cccc(CSc2ccc(CN3CCOCC3)cc2F)c1 [CBK174976] | 87.1% |
| CC(=O)c1ccc(NC(=O)Nc2nnc(CCN3CCCC3)s2)cc1 [CBK174990] | 92.6% |
| CN(C)C(=O)c1ccc(-c2cnc(OCC3CCN(C(=O)OC(C)(C)C)CC3)cn2)cc1F [CBK175076] | 118% |
| Cc1cc(C(=O)NCCO)ccc1Br [CBK175092] | 92% |
| O=C(O)CCc1cccnc1 [CBK175283] | 92.2% |
| CC(C)(C)c1csc(NC(=O)C2CC(=O)N(c3cccc(C(F)(F)F)c3)C2)n1 (stereo not shown) [CBK175545] | 106% |
| CC(C)(C)c1csc(NC(=O)C2CC(=O)N(Cc3cccs3)C2)n1 (stereo not shown) [CBK175547] | 109% |
| Brc1cccc(OCc2cccs2)c1 [CBK176011] | 99% |
| Clc1cncc(OCCCCOc2ccccc2)n1 [CBK176018] | 108% |
| Fc1ccccc1CCOc1cncc(Cl)n1 [CBK176038] | 86% |
| Clc1cncc(OC(c2ccccc2)C2CC2)n1 (stereo not shown) [CBK176042] | 78% |
| COc1ccc2cc(OCCO)ccc2c1 [CBK176054] | 63.6% |
| COc1cccc(COc2cncc(Cl)n2)c1OC [CBK176057] | 86.3% |
| COc1ccc(-c2cnccc2-n2ccnc2)cn1 [CBK177147] | 113% |
| CCc1ccc(-c2cnccc2-n2ccnc2)cc1 [CBK177151] | 93% |
| COc1ccccc1-c1cnccc1-n1ccnc1 [CBK177153] | 100% |
| c1ccc(OCCOc2cccnc2N2CCNCC2)cc1 [CBK200000C] | 90.1% |
| O=C1CCc2cccc(OCCOc3nccnc3N3CCNCC3)c21 [CBK200001G] | 101% |
| FC(F)(F)c1ccc(N2CCNCC2)nc1OCCOc1ccc2ccccc2c1 [CBK200002A] | 92.1% |
| c1ccc2c(c1)CCC2Oc1cncc(N2CCNCC2)n1 (stereo not shown) [CBK200005G] | 91% |

| Structure (SMILES) | viability at 28.5 h, 10 µM |
| --- | --- |
| C(#Cc1csc(COc2cncc(N3CCNCC3)n2)c1)c1ccccc1 [CBK200006G] | 92.5% |
| c1cncc(CNc2cccc(OCCOc3nccnc3N3CCNCC3)c2)c1 [CBK200008] | 89.2% |
| N#Cc1ccccc1Cn1ccc2c(N3CCNCC3)cccc21 [CBK200015C] | 102% |
| O=S(=O)(Cc1ccccc1)c1cc2c(N3CCNCC3)nccc2s1 [CBK200017C] | 91.9% |
| CC(C)(C)c1ccccc1[S+]([O-])c1cc2c(N3CCNCC3)nccc2s1 (stereo not shown) [CBK200018C] | 103% |
| O=C(O)c1ccc(NS(=O)(=O)c2ccc(Cl)cc2)cc1O [CBK200023] | 106% |
| CC1(C)CC(=O)c2sc(NS(=O)(=O)c3sc(Cl)cc3Br)nc2C1 [CBK200029] | 109% |
| COc1ccc2c(c1)CCc1sc(NS(=O)(=O)c3cccc(Cl)c3C)nc1-2 [CBK200033] | 84.3% |
| Cc1cc(Cl)cc(Cl)c1S(=O)(=O)Nc1nc2c(s1)C(=O)CC(C)(C)C2 [CBK200034] | 104% |
| C=CCN(c1ccccc1)S(=O)(=O)c1ccc(C(C)(C)CC)cc1 [CBK200036] | 95.7% |
| CCC(C)(C)c1ccc(S(=O)(=O)Nc2ccc(F)cc2F)cc1 [CBK200039] | 95.7% |
| CC(=O)c1sccc1NS(=O)(=O)c1ccc2ccccc2c1 [CBK200042] | 89.5% |
| Cc1c(Cl)cccc1S(=O)(=O)NC1=NC(=O)C(CC(=O)Nc2ccccc2Cl)S1 (stereo not shown) [CBK200043] | 107% |
| CCOC(=O)C1CCN(S(=O)(=O)c2ccc(C(C)C)cc2)CC1 [CBK200044] | 86.4% |
| O=[N+]([O-])c1ccc(S(=O)(=O)Nc2nnc(Cc3ccc(Cl)cc3)s2)cc1 [CBK200046] | 93.2% |
| O=S(=O)(Nc1nnc(C(F)(F)F)s1)c1ccc(Br)cc1 [CBK200047] | 89.6% |
| O=S(=O)(Nc1nnc(Cc2ccc(Cl)cc2)s1)c1ccc(Cl)cc1 [CBK200048] | 90.2% |
| Cc1c(Cl)cccc1S(=O)(=O)Nc1nc(C(C)Sc2nccn2C)ns1 (stereo not shown) [CBK200052] | 88.5% |
| CCCC(=O)NCC(C)c1nsc(NS(=O)(=O)c2cccc(Cl)c2C)n1 (stereo not shown) [CBK200053] | 96% |
| O=S(=O)(c1ccc2ccccc2c1)N1CCCCC1CO (stereo not shown) [CBK200055] | 100% |

Same assay, conditions: human, hela cells, % viability, bulk resorufin, single well

| Structure (SMILES) | viability at 28.5 h, 10 µM |
| --- | --- |
| CCOC(=O)N1CCC2(CC1)OCc1ccc(Oc3ccncc3)cc1O2 [CBK174776] | 102% |
| CCOC(=O)N1CCC2(CC1)OCc1ccc(-c3ccc(S(C)(=O)=O)nc3)cc1O2 [CBK174780] | 92% |
